Measurements taken from patent publication US20110166162A1, “1,2-Benzisothiazole Compounds Useful for Combating Animal Pests” (priority 2007, published 2011).

Columns and labels:
Format in all cases: in vivo
adult female rats = experiment: Acute oral rat toxicity study, single oral gavage, 14 days observation; conditions: three rats per study, single oral gavage dose 100 mg/kg bw
Protocol: Some representatives of the compounds according to the present invention have been tested in acute oral rat toxicity studies.
In these studies, test substances were administered to adult female rats by oral gavage for one time. The compounds were administered as a 1% b.w. suspension or the compound in a 1% aqueous carboxymethyl cellulose solution. In each study three rats were used. The animals were treated with a single dose of 100 mg/kg bw. […] After the 14 day observation period, the animals were sacrificed, dissected, and examined for gross pathological lesions.

[1] = test system: rice green leafhopper (nephotettix virescens); experiment: Rice green leafhopper on sprayed rice seedlings; conditions: 300 ppm, adults, after 72 hours
Protocol: II.12 Rice Green Leafhopper (nephotettix virescens)
Rice seedlings were cleaned and washed 24 hours before spraying. The active compounds were formulated in 50:50 acetone:water (vol/vol), and 0.1% (vol/vol) surfactant (EL 620) was added. Potted rice seedlings were sprayed with 5 ml test solution, air dried, placed in cages and inoculated with 10 adults. Treated rice plants were kept at about 28-29° C. and relative humidity of about 50-60%. Percent mortality was recorded after 72 hours.

[2] = test system: green peach aphid (Myzus persicae); experiment: Green peach aphid, pepper plant leaf dip test; conditions: 300 ppm; pepper plants dipped; after 5 days
Excerpt: II.11 Green Peach Aphid (myzus persicae)
(§1) The active compounds were formulated in 50:50 acetone:water (vol/vol) and 100 ppm Kinetic™ surfactant.
Pepper plants in the 2nd leaf-pair stage (variety “California Wonder”) were infested with approximately 40 laboratory-reared aphids by placing infested leaf sections on top of the test plants. The leaf sections were removed after 24 hr. The leaves of the intact plants were dipped into gradient solutions of the test compound and allowed to dry. Test plants were maintained under fluorescent light (24 hour photoperiod) at about 25° C. and about 20-40% relative humidity. Aphid mortality on the treated plants, relative to mortality on check plants, was determined after 5 days.

[3] = test system: silverleaf whitefly (bemisia argentifolii); experiment: Silverleaf whitefly, cotton cotyledon dip test; conditions: 300 ppm; cotyledons dipped; 3 days after treatment
Protocol: II.9 Silverleaf Whitefly (bemisia argentifolii)
as §1
Selected cotton plants were grown to the cotyledon state (one plant per pot). The cotyledons were dipped into the test solution to provide complete coverage of the foliage and placed in a well-vented area to dry. Each pot with treated seedling was placed in a plastic cup and 10 to 12 whitefly adults (approximately 3-5 day old) were introduced. The insects were collected using an aspirator and a Tygon® tubing connected to a barrier pipette tip. The tip containing the collected insects was then gently inserted into the soil containing the treated plant allowing insects to crawl out of the tip to reach the foliage for feeding. The cups were covered with a re-usable screened lid. Test plants were maintained in the holding room at about 25° C. and about 20-40% relative humidity for 3 days avoiding direct exposure to the fluorescent light (24 hour photoperiod) to prevent trapping of heat inside the cup. Mortality was assessed 3 days after treatment of the plants.

SMILES | Lethality (cumulative) 0-5 h after treatment (adult female rats) | Lethality (cumulative) 1 d after treatment (adult female rats) | Lethality (cumulative) 2 d after treatment (adult female rats) | Lethality (cumulative) 7 d after treatment (adult female rats) | Lethality (cumulative) 14 d after treatment (adult female rats) | other results
Cc1nccc(CN2C(=O)c3cc(-c4ccc(Cl)cc4C(F)(F)F)ccc3S2(=O)=O)c1C [I.35] | 0 | 0 | 0 | 0 | 2 | –
COc1cc(CN2C(=O)c3cc(-c4ccc(F)cc4F)ccc3S2(=O)=O)ccn1 [I.19] | – | – | – | – | – | mortality in comparison with untreated controls [1]: over 75%
Cc1nccc(CN2C(=O)c3cc(-c4ccc(C(F)(F)F)cc4Cl)ccc3S2(=O)=O)c1C [I.34] | 0 | 0 | 0 | 0 | 1 | –
O=C1c2cc(-c3ccc(F)cc3F)ccc2S(=O)(=O)N1Cc1ccncc1 [I.20] | – | – | – | – | – | mortality in comparison with untreated controls [2]: over 75%
O=C1c2cc(-c3ccc(F)cc3F)ccc2S(=O)(=O)N1Cc1ccnc2cc(C(F)(F)F)ccc12 [I.28] | – | – | – | – | – | mortality in comparison with untreated controls [3]: over 75%
